{
  "source": "patent US20180014546A1",
  "about": "“Broad Spectrum Bacteriocin for Control of Unwanted Bacteria” (priority 2013, published 2018)",
  "key": {"[1]": {"test_system": "non-LAB isolates (strains of Staphylococcus, Enterobacter, Bacillus, Clostridium)", "test": "Inhibitory activity spectrum, culture supernatant spotted on indicator bacterial lawns (non-LAB isolates)", "assay_type": "cell-based", "procedure": "(§1) In the discovery of the unique broad spectrum bacteriocin of this invention, indigenous LAB were isolated and purified from the fermentation mash of the commercial ethanol fermentation plants. The identities of the isolates were determined to the species level based on their 16s rDNA sequences. The capability of the isolated LAB strains to produce antimicrobial compounds was identified. Culture supernatants of the strains to be tested were spotted onto individual indicator bacterial culture lawns, which were prepared using a variety of LAB strains of different genera. After incubation, growth inhibition of the indicator bacteria was seen as a clear zone at and around the spotting position. Any positive activity of bacterial growth inhibition from the tested culture supernatant was confirmed again in the same manner, and the inhibitory activity spectrum of the antimicrobial compound is determined. […]\n(§2) The inhibitory activity spectrum of GP15cin against different strains was determined. The active concentration range and the minimum inhibition concentration of the bacteriocin are determined using different indicator strains. The activity levels of the bacteriocin present in the raw bacterial culture supernatants and/or in partially purified mixtures were also determined. […]"}, "contaminating LAB": {"test_system": "contaminating LAB", "test": "Lactic and acetic acid levels in laboratory-scale ethanol fermentation", "assay_type": "cell-based", "from_the_text": "(§3) GP15cin described herein were produced by a L. plantarum strain, which was isolated from the indigenous LAB populations present during commercial ethanol fermentation. GP15cin can act towards species and/or strains of similar indigenous LAB populations and thus can be used as an effective control for contaminating LAB. […] Either fermentor or mash cooler mash samples were collected from 6 different commercial ethanol plants on 13 different days from 2012 to 2014. Results of 15 independent tests are shown. […] It is likely that the effects on controlling contaminating bacteria and acids will be even more significant if a higher dose of […] is used. The presented results highlight the feasibility of GP15cin application for control of unwanted bacteria in ethanol and other biofuel industries."}, "[2]": {"test_system": "LAB isolates from commercial ethanol plants (Lactobacillus, Lactococcus, Weissella, Leuconostoc, Pediococcus, Enterococcus, Streptococcus)", "test": "Inhibitory activity spectrum, culture supernatant spotted on indicator bacterial lawns (LAB isolates)", "assay_type": "cell-based, lactic acid bacteria", "conditions": "multiple genera", "procedure": "as §1, §2"}, "[3]": {"test_system": "indigenous contaminating bacteria in ethanol fermentation mash", "test": "Reduction of indigenous contaminating bacterial level in fermentation mash from commercial ethanol plants", "assay_type": "cell-based", "conditions": "crude form", "procedure": "The inhibitory activity spectrum of GP15cin against different strains was determined. The active concentration range and the minimum inhibition concentration of the bacteriocin are determined using different indicator strains. The activity levels of the bacteriocin present in the raw bacterial culture supernatants and/or in partially purified mixtures were also determined. […] FIG. 2 to FIG. 11 show the effectiveness of GP15cin in reducing the total levels of indigenous bacteria presented in fermentation mash from different commercial ethanol plants. The exact identities of the indigenous bacteria population in different plants are unknown and are likely highly diverse.\nas §3, with “The presented results highlight the feasibility of GP15cin application for control of unwanted bacteria in ethanol and other biofuel industries.” left out"}, "[4]": {"test_system": "production host Lactobacillus plantarum GP15", "test": "Activity against own production host", "assay_type": "cell-based", "from_the_text": "As noted above, GP-15cin may be applied alone or in combination with other bacteriocin and/or bacteriophage virulent for unwanted bacteria in the same system. Bacteriocin producing hosts are immune to the bacteriocins produced by themselves. GP-15cin is therefore not active against its own production host, GP15cin. […] Therefore, it is desirable to combine GP-15cin with a different bacteriocin in a cocktail that will kill the bacteria insensitive to GP15cin. Additionally, GP-15cin may be combined with other antimicrobial agents to broaden the scope of effectiveness against the range of unwanted bacteria that are targeted. For example, the combination of bacteriocin and bacteriophage (phage) ensures a broader inhibition spectrum and more efficient control of the bacteria contamination. Phage targeting these non-sensitive strains can be isolated, and be combined with the bacteriocin for a complete control of contaminating bacteria."}, "[5]": {"test": "Bacteriocin stability at different temperatures and pH values", "assay_type": "physicochemical", "procedure": "Either using crude, partially or completely purified form, the chemical characteristics of the bacteriocins can be determined. The determined characteristics include their sensitivities to different enzymes, stability at different temperatures and pH values, etc. Sensitivity of the bacteriocin to proteolytic and lipolytic enzymes, such as trypsin, pepsin, pronase, lipase, etc, was tested. The proteinaceus nature of GP15cin was confirmed. […] The same bacteriocin has optimal activity in the pH range of 4-10."}, "[6]": {"test_system": "Lactobacillus fermentum strain 0315-25", "test": "Batch culture growth inhibition, bacteriocin and/or phage, growth monitored 24 h", "assay_type": "cell-based", "procedure": "Bacteriocin alone, bacteriophage alone, and bacteriocin combined with phage were tested against Lactobacillus in batch culture systems. To be specific, logarithmic growth phase cultures of Lactobacillus fermentum strain 0315-25 (OD600 being 0.1) were treated either with single agent at different doses, such as bacteriocin GP15cin alone at different doses (0.1%, 1%, and 10%, v/v), or a phage designated herein as LferInf alone at different MOIs (0.1, 1, and 10), or two agents combined together at different doses, such as 0.1% GP15cin plus LferInf at MOI of 0.1, 0.1% GP15cin plus phage LferInf at MOI of 1, 1% GP15cin plus LferInf at MOI of 0.1, and 1% GP15cin plus phage LferInf at MOI of 1. Culture without any treatment was served as control. LferInf is a bacteriophage isolated from wastewater and found to be effective against a broad host range of Lactobacillus and described in more detail below. The growth of bacteria was monitored for 24 h, and the treatment effects were compared."}},
  "note": "“Also recorded” adds a separate entry of the source.",
  "data": [
    {"substance": "plantaricin W [GP15cin]", "values": [
      {"measurement": "killing activity against non-LAB isolates", "setting": "[1]", "value": "showed killing activity"},
      {"measurement": "lactic acid and acetic acid levels produced by contaminating LAB", "setting": "contaminating LAB", "value": "significantly reduced"},
      {"measurement": "killing activity against LAB isolates", "setting": "[2]", "value": "broad range killing activity; also recorded: extremely broad killing spectrum"},
      {"measurement": "time in which the reduction effect was seen", "setting": "[3]", "value": "≥ 2", "unit": "h"},
      {"measurement": "reduction of indigenous contaminating bacteria levels", "setting": "[3]; mash samples from 6 plants, 15 independent tests", "value": "consistent reduction effects seen in all tests; also recorded: reduced indigenous contaminating bacteria levels in all mash samples"},
      {"measurement": "activity against own production host", "setting": "[4]", "value": "not active"},
      {"measurement": "pH range of optimal activity", "setting": "[5]", "value": "4-10 pH"},
      {"measurement": "loss of activity (heat resistance)", "setting": "[5]; after 2 hours at 120° C.", "value": "not a complete loss of activity"},
      {"measurement": "loss of activity", "setting": "[5]; pH 12", "value": "complete loss of activity"},
      {"measurement": "reduction in activity", "setting": "[5]; pH values of 1, 2, 3, and 11", "value": 50, "unit": "%"},
      {"measurement": "reduction in activity", "setting": "[5]; temperature of 120° C.", "value": 87.5, "unit": "%"},
      {"measurement": "reduction in activity", "setting": "[5]; temperatures of 65-100° C.", "value": 50, "unit": "%"},
      {"measurement": "growth of L. fermentum", "setting": "[6]; GP15cin alone 0.1% v/v", "value": "all treatment, except GP15cin used at 0.1%, suppressed the growth"},
      {"measurement": "growth of L. fermentum", "setting": "[6]; GP15cin alone 1% v/v", "value": "suppressed the growth"},
      {"measurement": "growth of L. fermentum", "setting": "[6]; GP15cin alone 10% v/v", "value": "suppressed the growth"}
    ]}
  ]
}
